Measurements taken from patent US20260235623A1, “EFFECT INDUCED BY A SODIUM-GLUCOSE COTRANSPORTER INHIBITOR (SGLTi) IN A SUBJECT SUFFERING FROM A CARDIOVASCULAR DISEASE” (Roche Diagnostics Operations, Inc., priority 2023, published 2026).
Like-named read-outs stand apart in the source and are kept apart here.

What was measured:
FABP3 = details: for amount of FABP3 higher compared to baseline: 3 months (V2)
Description: (§1) A total of 100 patients with stable chronic HFrEF participating in a prospective registry at the heart failure outpatient clinic at the Medical University of Vienna, which has been imputed with all clinically relevant data, are included in the present study. The inclusion criteria of the registry are documented chronic HFrEF, an age of at least 18 years and stable heart failure related medical therapy in the last 3 months. Inclusion criteria for this study is the participation in the registry, and the absence of any exclusion criteria avoiding the prescription of SGLT-2 inhibitor (Dapagliflozin). Visits at the outpatient clinic are conducted at baseline (visit 0), at week 4 after SGLT-2 inhibitor therapy initiation (visit 1), after 3 month (visit 2), after 6 months (visit 3), and every 6 months thereafter.
(§2) Blood and urine samples are drawn from a peripheral vein and collected at baseline prior to administration of the SGLT-2 inhibitor and repeated at every regularly scheduled study-visit. Samples are used for (1.) routine laboratory analysis and (2.) biobank storage.
(§3) Blood for the biobank is immediately centrifuged and plasma samples are stored at-80° C. for future analysis. The plasma samples and urine samples are stored in the central “biobank” facility of the Department of Laboratory Medicine at the Medical University of Vienna.
(§4) FABP3 and additional cardiac biomarkers N-terminal B-type natriuretic peptide (NT-proBNP) and GDF-15 are measured in plasma using the Elecsys Systems (Roche Diagnostics, Mannheim, Germany).

FABP3/NT-proBNP = details: for median FABP3/NT-proBNP ratio: FABP3 in ng/ml, NT-proBNP in pg/mL, baseline median ratio 0.026
Description: as §1, §2, §3, §4

GDF-15 = details: baseline median 2439.34
Description: as §1, §2, §3, §4

NT-proBNP = details: for median NT-proBNP concentration: baseline median 1396.30; for change of amount of NT-proBNP before and after initiation: before and after SGLT2i initiation
Description: as §1, §2, §3, §4

FABP3/GDF-15 = details: for median FABP3/GDF-15 ratio: FABP3 in ng/ml, GDF-15 in pg/mL, baseline median ratio 0.017
Description: as §1, §2, §3, §4

[1] = after 6 months (V3), vs. baseline
[2] = V1: week 4 after SGLT2i therapy initiation

Q: Which results are given for `CCOc1ccc(Cc2cc([C@@H]3O[C@H](CO)[C@@H](O)[C@H](O)[C@H]3O)ccc2Cl)cc1` [SGLT2i, Dapagliflozin]?
A: relative increase of FABP3 concentration alone (FABP3; [1]): 19%; change in plasma concentration of FABP3 after therapy initiation (FABP3; chronic HFrEF patients): increase in plasma concentration of FABP3; median FABP3 plasma concentration (FABP3; chronic HFrEF patients, V1: week 4 after SGLT2i therapy initiation, baseline median 37.82): 40.86 ng/mL; median FABP3 plasma concentration (FABP3; chronic HFrEF patients, V2: 3 months, baseline median 37.82): 45.14 ng/mL; median FABP3 plasma concentration (FABP3; chronic HFrEF patients, V3: 6 months, baseline median 37.82): 44.36 ng/mL; FABP3 plasma concentration (FABP3; chronic HFrEF patients, V4: 12 months, baseline median 37.82): 44.47 ng/mL; amount of FABP3 higher compared to baseline (FABP3; patient subgroup with high baseline FABP3 (above 37.8 ng/ml)): about 14%; amount of FABP3 higher compared to baseline (FABP3; patient subgroup with low baseline FABP3 (below 37.8 ng/ml)): about 27%; median FABP3 concentration (FABP3; patients with high baseline FABP3 (above 37.8 ng/ml), V1: week 4, baseline median 47.97): 53.56 ng/mL; median FABP3 concentration (FABP3; patients with high baseline FABP3 (above 37.8 ng/ml), V2: 3 months, baseline median 47.97): 54.73 ng/mL; median FABP3 concentration (FABP3; patients with high baseline FABP3 (above 37.8 ng/ml), V3: 6 months, baseline median 47.97): 54.51 ng/mL; FABP3 concentration (FABP3; patients with high baseline FABP3 (above 37.8 ng/ml), V4: 12 months, baseline median 47.97): 53.23 ng/mL; median FABP3 concentration (FABP3; patients with low baseline FABP3 (below 37.8 ng/mL), V1: week 4, baseline median 29.05): 31.41 ng/mL; median FABP3 concentration (FABP3; patients with low baseline FABP3 (below 37.8 ng/mL), V2: 3 months, baseline median 29.05): 38.86 ng/mL; median FABP3 concentration (FABP3; patients with low baseline FABP3 (below 37.8 ng/mL), V3: 6 months, baseline median 29.05): 36.41 ng/mL; FABP3 concentration (FABP3; patients with low baseline FABP3 (below 37.8 ng/mL), V4: 12 months, baseline median 29.05): 36.76 ng/mL; time for which the FABP3 increase is apparent (FABP3; under SGLTi treatment): ≥ 12 months; median FABP3/NT-proBNP ratio (FABP3/NT-proBNP; V1: week 4): 0.032; median FABP3/NT-proBNP ratio (FABP3/NT-proBNP; V2: 3 months): 0.039; median FABP3/NT-proBNP ratio (FABP3/NT-proBNP; V3: 6 months): 0.046; median FABP3/NT-proBNP ratio (FABP3/NT-proBNP; V4: 12 months): 0.033; peak of relative increase of FABP3/NT-proBNP ratio (FABP3/NT-proBNP; [1]): 77%; change of FABP3/NT-proBNP ratio after initiation (FABP3/NT-proBNP; over time after SGLT2i initiation): increases over time; median GDF-15 concentration (GDF-15; [2]): 2657.16 pg/mL; median GDF-15 concentration (GDF-15; V2: 3 months): 3036.18 pg/mL; median GDF-15 concentration (GDF-15; V3: 6 months): 2414.01 pg/mL; median GDF-15 concentration (GDF-15; V4: 12 months): 2039.85 pg/mL; median NT-proBNP concentration (NT-proBNP; [2]): 1115.68 pg/mL; median NT-proBNP concentration (NT-proBNP; V2: 3 months): 1191.95 pg/mL; median NT-proBNP concentration (NT-proBNP; V3: 6 months): 889.21 pg/mL; median NT-proBNP concentration (NT-proBNP; V4: 12 months): 1172.84 pg/mL; change of amount of NT-proBNP before and after initiation (NT-proBNP): does not correlate; change of amount of NT-proBNP before and after initiation (NT-proBNP; listed as SGLTi): does not significantly change; median FABP3/GDF-15 ratio (FABP3/GDF-15; V1: week 4): 0.016; median FABP3/GDF-15 ratio (FABP3/GDF-15; V2: 3 months): 0.016; median FABP3/GDF-15 ratio (FABP3/GDF-15; V3: 6 months): 0.016; median FABP3/GDF-15 ratio (FABP3/GDF-15; V4: 12 months): 0.019; change of FABP3/GDF-15 ratio after initiation (FABP3/GDF-15; after SGLT2i initiation): remains stable; peak of relative increase of FABP3/GDF-15 ratio (FABP3/GDF-15; at 12 months (V4), vs. baseline): 12%
